Results on 13 compounds are retold here after patent publication US20050170485A1, “Culture having phenol oxidase-like activity” (priority 2002, published 2005).

Holding throughout (assay type): biochemical
In experiment [1] the test system is culture of Flammulina velutipes strain IFO 30601. The experiment is described as follows: Oxidative coupling reaction with 4-aminoantipyrine by the culture. Conditions: for activity of the culture for the substrate in words, oxidative coupling reaction: pH 7.0; for Specific Activity, Culture (oxidative coupling with 4-aminoantipyrine): reaction pH 7.0, 25° C., substrate 2.0 mM. Here is the method:
Next, the oxidative coupling reaction of the culture obtained in (2) in Example 1 mentioned above was determined by using color development as an index by the oxidative condensation of the substrate (hydrogen donor) with 4-aminoantipyrine, catalyzed by the culture of the present invention.
As the hydrogen donors, there were used phenolic compounds (phenol, 2-methoxyphenol, 2,6-dimethoxyphenol, catechol, resorcinol, hydroquinone, pyrogallol, gallic acid, propyl gallate, 1-naphthol, catechin), aminophenolic compounds (o-aminophenol, m-aminophenol, p-aminophenol), diaminophenolic compounds (o-phenylenediamine, m-phenylenediamine, p-phenylenediamine), and heterocyclic compounds (5-hydroxyindole, 2,6-diaminopyridine).
The above-mentioned culture solution was added to a reaction system containing 4-aminoantipyrine and an optional hydrogen donor. Thereafter, the activity of the culture of the present invention was assayed by determining a change in absorbance at 490 nm for the phenolic compound, the diaminophenolic compound and the heterocyclic compound, or determining a change in absorbance at 450 nm for the aminophenolic compound. As to a substrate hardly soluble in water, there was used one obtained by dissolving the substrate in a small amount of dimethyl sulfoxide and diluting the resulting solution with deionized water to a desired concentration. In Table 4, DMSO is an abbreviation for dimethyl sulfoxide.
(§1) Concretely, 190 μl of 105.3 mM phosphate buffer (pH 7.0) containing 0.4 μmol of a substrate and 4.0 μmol of 4-aminoantipyrine was pre-incubated in wells of a 96-well microplate [manufactured by Corning, Costor (registered trademark) 3368] at 25° C. for 1 minute. Next, 10 μl of the above-mentioned culture solution was added to the resulting mixture, and thereafter, the mixture was incubated for 1 hour. A change in absorbance at 490 nm or 450 nm was determined for the resulting product. One unit (U) of the activity regarding the oxidative coupling reaction was defined as an amount for increasing the absorbance by 1 per one minute.

Experiment [2] deals with T1, bilirubin oxidase from the strain of the genus Myrothecium (Albifimbria verrucaria, UniProt Q12737).
T1 sequence (Q12737 39-572): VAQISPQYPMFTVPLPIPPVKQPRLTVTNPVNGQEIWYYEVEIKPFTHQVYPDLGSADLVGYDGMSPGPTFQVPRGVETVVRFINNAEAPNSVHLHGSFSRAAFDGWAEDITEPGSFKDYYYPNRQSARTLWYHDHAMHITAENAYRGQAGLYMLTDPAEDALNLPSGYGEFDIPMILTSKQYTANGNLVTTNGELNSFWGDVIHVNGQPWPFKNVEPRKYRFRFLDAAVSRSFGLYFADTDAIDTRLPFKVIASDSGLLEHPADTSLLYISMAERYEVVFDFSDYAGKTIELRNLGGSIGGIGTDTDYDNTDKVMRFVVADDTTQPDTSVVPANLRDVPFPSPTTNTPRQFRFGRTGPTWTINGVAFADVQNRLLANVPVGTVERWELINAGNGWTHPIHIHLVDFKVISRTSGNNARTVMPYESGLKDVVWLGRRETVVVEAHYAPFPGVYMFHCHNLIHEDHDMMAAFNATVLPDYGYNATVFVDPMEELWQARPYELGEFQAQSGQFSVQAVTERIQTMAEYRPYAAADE
Kind of experiment: Oxidative coupling reaction with 4-aminoantipyrine by bilirubin oxidase (comparison). Conditions: reaction pH 8.0, substrate 2.0 mM. Here is the method: as §1
In addition, for the comparison, the examination was made in the same manner for bilirubin oxidase from the strain of the genus Myrothecium except that the above-mentioned buffer was replaced with 105.3 mM Tris-HCl buffer (pH 8.0).

In experiment [3] the test system is culture of Flammulina velutipes strain IFO 30601. Kind of experiment: Direct oxidation reaction by the culture. Conditions: for activity of the culture for the substrate in words, direct oxidation reaction: pH 7.0; for activity of the culture compared with bilirubin oxidase from the genus Myrothecium, direct oxidation / activity of the culture compared with laccase from Japanese lacquer, direct oxidation: pH 7.0, relative activities of Table 7; for Relative Activity, Culture (direct oxidation): reaction pH 7.0, 2-chloro 1,4-phenylenediamine = 100. Here is the method: Further, the direct oxidation reaction of the culture obtained in the above-mentioned example was determined by using color development due to oxidative polymerization of a substrate generated by the direct action of the culture of the present invention on the substrate as an index.
As the substrates, there were used diaminophenolic compounds (2-chloro 1,4-phenylenediamine, p-phenylenediamine, 2,5-diaminotoluene, N-phenyl-p-phenylenediamine, toluylene-3,4-diamine, m-phenylenediamine), aminophenolic compounds (o-aminophenol, m-aminophenol, 5-amino-o-cresol, p-aminophenol, p-methylaminophenol), and phenolic compounds (2,6-dimethoxyphenol, catechol, resorcinol, hydroquinone, pyrogallol, gallic acid, propyl gallate, 1-naphthol, […], 2,3,4-trihydroxybenzophenone, 2,3,4,4-tetrahydroxybenzophenone). As to a substrate hardly soluble in water, there was used one obtained by dissolving the substrate in a small amount of dimethyl sulfoxide and diluting the resulting solution with deionized distilled water to a desired concentration. In Table 6, %” indicates volume/volume %.
(§2) Concretely, 180 μl of 0.89 mM sodium phosphate buffer (pH 7.0) containing […] substrate was pre-incubated in wells of a 96-well microplate [manufactured by Corning, Costor (registered trademark) 3368] at 25° C. for 1 minute. Next, 20 μl of the above-mentioned culture solution was added to the resulting mixture. A change in absorbance at 490 nm, 450 nm or 405 nm was determined for the resulting product, depending on the substrate. Here, 1 U (unit) of the activity regarding the direct oxidative reaction was defined as an amount for increasing the absorbance by 1 per one minute.

The test system is the same in experiment [4]. Kind of experiment: Substrate specificity of the culture (phenol oxidase-like activity, Table 1). Conditions: pH 7.0; determined wavelength per substrate (Table 1).
Experiment [5] has as its system laccase from Japanese lacquer. The experiment is described as follows: Direct oxidation reaction by laccase (comparison). The conditions noted are these: reaction pH 7.0; 2-chloro 1,4-phenylenediamine = 100. Here is the method:
Next, 20 μl of the above-mentioned culture solution was added to the resulting mixture. A change in absorbance at 490 nm, 450 nm or 405 nm was determined for the resulting product, depending on the substrate. Here, 1 U (unit) of the activity regarding the direct oxidative reaction was defined as an amount for increasing the absorbance by 1 per one minute.
(§3) In addition, for the comparison, the substrate specificities at pH 7.0 for laccase from Japanese lacquer and bilirubin oxidase from the strain belonging to the genus Myrothecium were also examined in the same manner.

Experiment [6] concerns the target T2, bilirubin oxidase from the strain belonging to the genus Myrothecium (Albifimbria verrucaria, UniProt Q12737).
T2 sequence (Q12737 39-572): T1 sequence (Q12737 39-572)
Kind of experiment: Direct oxidation reaction by bilirubin oxidase (comparison). Also on record: concentration or dose not given beside the values. The conditions noted are these: reaction pH 7.0; 2-chloro 1,4-phenylenediamine = 100. Here is the method: as §2, §3
The relative activity (%) for each substrate is shown in Table 7, in which the measured value for a case where a representative chemical dye 2-chloro 1,4-phenylenediamine was used as a substrate is 100.

Regarding `COc1cccc(OC)c1O` [2,6-Dimethoxyphenol], in experiment [1], the “activity of the culture for the substrate in words, oxidative coupling reaction” value (“activity … oxidative coupling reaction” below) is reported as “especially high activity” and the “Specific Activity, Culture (oxidative coupling with 4-aminoantipyrine)” value (“Specific Activity, Culture” below) was 18.1 U/mg Protein. In experiment [2], the “Specific Activity, Bilirubin Oxidase from Strain Belonging to Genus Myrothecium (oxidative coupling with 4-aminoantipyrine)” value (“Specific Activity, Bilirubin Oxidase” below) came out at 12.0 U/mg Protein. Further, in experiment [3], the “activity of the culture for the substrate in words, direct oxidation reaction” value is given as “high activity”; the “activity of the culture compared with bilirubin oxidase from the genus Myrothecium, direct oxidation” value is reported as “even higher activity”; the “activity of the culture compared with laccase from Japanese lacquer, direct oxidation” value is recorded as “even higher activity”; the “Relative Activity, Culture (direct oxidation)” value (from here on “Relative Activity, Culture”) is reported as 250%. In addition, the “U (activity of the culture on the substrate)” value in experiment [4] is given as 0.830 U. In addition, the “Relative Activity, Laccase from Japanese Lacquer (direct oxidation)” value (“Relative Activity, Laccase” for short) in experiment [5] came to 21%. Besides, the “Relative Activity, Bilirubin Oxidase from Strain Belonging to Genus Myrothecium (direct oxidation)” value (shortened to “Relative Activity, Bilirubin Oxidase”) in experiment [6] is given as 69%.

For `COc1ccccc1O` [2-Methoxyphenol], in experiment [1], the “activity … oxidative coupling reaction” value is listed as “especially high activity” and the “Specific Activity, Culture” value was 14.5 U/mg Protein. Also, the “Specific Activity, Bilirubin Oxidase” value in experiment [2] amounted to 2.5 U/mg Protein. Moreover, the “U (activity of the culture on the substrate)” value in experiment [4] was 0.117 U.

In the case of `Oc1cccc2[nH]ccc12` [4-Hydroxyindole], the “U (activity of the culture on the substrate)” value in experiment [4] is given as 0.078 U.

Take `CCn1c(=NN=c2sc3cc(S(=O)(=O)O)ccc3n2CC)sc2cc(S(=O)(=O)O)ccc21` [ABTS]: in experiment [4], the “U (activity of the culture on the substrate)” value is on record as 0.683 U.

Consider `Oc1ccccc1O` [Catechol], for which, in experiment [1], the “activity … oxidative coupling reaction” value is “especially high activity” and the “Specific Activity, Culture” value amounted to 23.3 U/mg Protein. Further, the “Specific Activity, Bilirubin Oxidase” value in experiment [2] came out at 16.0 U/mg Protein. For the same compound, in experiment [3], the “activity of the culture compared with bilirubin oxidase from the genus Myrothecium, direct oxidation” value is on record as “higher activity”; the “activity of the culture compared with laccase from Japanese lacquer, direct oxidation” value was “even higher activity”; the “Relative Activity, Culture” value is given as 21%. Also, the “U (activity of the culture on the substrate)” value in experiment [4] was 0.029 U. Besides, the “Relative Activity, Laccase” value in experiment [5] is 2%. In experiment [6], the “Relative Activity, Bilirubin Oxidase” value turned out to be 5%.

Take `Oc1ccc(O)cc1` [Hydroquinone]: in experiment [1], the “Specific Activity, Culture” value is listed as 2.1 U/mg Protein. In experiment [2], the “Specific Activity, Bilirubin Oxidase” value was found to be 0.5 U/mg Protein. Further, in experiment [3], the “activity of the culture compared with bilirubin oxidase from the genus Myrothecium, direct oxidation” value is given as “even higher activity”; the “activity of the culture compared with laccase from Japanese lacquer, direct oxidation” value is on record as “even higher activity”; the “Relative Activity, Culture” value is given as 20%. In addition, in experiment [5], the “Relative Activity, Laccase” value was 2%. Further, the “Relative Activity, Bilirubin Oxidase” value in experiment [6] is recorded as 4%.

Take `N[C@@H](Cc1ccc(O)cc1)C(=O)O` [L-Tyrosine]: the “U (activity of the culture on the substrate)” value in experiment [4] amounted to 0.018 U.

`CCCOC(=O)c1cc(O)c(O)c(O)c1` [Propyl Gallate]: the “Specific Activity, Culture” value in experiment [1] is recorded as −0.2 U/mg Protein. In addition, in experiment [2], the “Specific Activity, Bilirubin Oxidase” value is listed as −0.1 U/mg Protein. Further, in experiment [3], the “activity of the culture compared with bilirubin oxidase from the genus Myrothecium, direct oxidation” value was “higher activity”; the “activity of the culture compared with laccase from Japanese lacquer, direct oxidation” value is recorded as “higher activity”; the “Relative Activity, Culture” value is given as 34%. In addition, in experiment [5], the “Relative Activity, Laccase” value was 14%. The “Relative Activity, Bilirubin Oxidase” value in experiment [6] came to 85%.

As to `Oc1cccc(O)c1O` [Pyrogallol], the “Specific Activity, Culture” value in experiment [1] is recorded as 3.2 U/mg Protein. In addition, the “Specific Activity, Bilirubin Oxidase” value in experiment [2] is −27.6 U/mg Protein. Further, in experiment [3], the “activity of the culture for the substrate in words, direct oxidation reaction” value was “high activity” and the “Relative Activity, Culture” value was 184%. Moreover, the “Relative Activity, Laccase” value in experiment [5] was found to be 187%. The “Relative Activity, Bilirubin Oxidase” value in experiment [6] stood at 104%.

As to `Oc1cccc(O)c1` [Resorcinol], the “Specific Activity, Culture” value in experiment [1] is 5.7 U/mg Protein. Besides, in experiment [2], the “Specific Activity, Bilirubin Oxidase” value was 25.6 U/mg Protein. Further, in experiment [3], the “activity of the culture compared with laccase from Japanese lacquer, direct oxidation” value is listed as “higher activity” and the “Relative Activity, Culture” value is 75%. The “Relative Activity, Laccase” value in experiment [5] is recorded as 25%. The “Relative Activity, Bilirubin Oxidase” value in experiment [6] is reported as 91%.

On to `COc1cc(/C=N/N=C/c2cc(OC)c(O)c(OC)c2)cc(OC)c1O` [Syringaldazine], for which the “U (activity of the culture on the substrate)” value in experiment [4] stood at 0.141 U.

For the compound `Nc1cccc(O)c1` [m-Aminophenol], the “Specific Activity, Culture” value in experiment [1] was found to be 8.8 U/mg Protein. Also, the “Specific Activity, Bilirubin Oxidase” value in experiment [2] is recorded as 1.3 U/mg Protein. Also, in experiment [3], the “activity of the culture compared with bilirubin oxidase from the genus Myrothecium, direct oxidation” value is listed as “even higher activity”; the “activity of the culture compared with laccase from Japanese lacquer, direct oxidation” value is reported as “even higher activity”; the “Relative Activity, Culture” value amounted to 40%. For the same compound, in experiment [5], the “Relative Activity, Laccase” value is listed as 3%. Further, the “Relative Activity, Bilirubin Oxidase” value in experiment [6] was determined as 3%.

Consider `Nc1cccc(N)c1` [m-Phenylenediamine], for which the “Specific Activity, Culture” value in experiment [1] is reported as 29.7 U/mg Protein. Besides, in experiment [2], the “Specific Activity, Bilirubin Oxidase” value is given as 1.7 U/mg Protein. In experiment [3], the “activity of the culture compared with laccase from Japanese lacquer, direct oxidation” value is on record as “even higher activity” and the “Relative Activity, Culture” value is 26%. Besides, the “Relative Activity, Laccase” value in experiment [5] came to 4%. Moreover, the “Relative Activity, Bilirubin Oxidase” value in experiment [6] amounted to 14%.
